# Patent US8138191B2, “Inhibitor compounds and cancer treatment methods” (Critical Outcome Technologies Inc., priority 2007, dated 2012)
# Like-named read-outs stand apart in the source and are kept apart here.
# How the values were obtained:
# [1] = Metabolic Stability (liver microsomes, human); type: in vitro ADME
# Procedure: Metabolic stability was determined in human (mixed gender and pool of 50) monkey (male Cynomolgus, pool of 6 or more), dog male, beagle, pool of 4 or more) and rat (male Sprague-Dawley, pool of 100 or more) liver microsomes. […] Four reference substrates (1 μM) were tested simultaneously with COTI-2. […] Peak areas corresponding to COTI-2 were recorded by HPLC-MS/MS. Metabolic stability, expressed as percent of COTI-2 remaining, was calculated by comparing the peak area of COTI-2 at 60 min to time zero.
# [2] = test system: total Akt protein in DMS-114 cells; test: Total Akt by western blot analysis, DMS-114; type: cell-based, human; conditions: DMS-114, 250 nM, after 24 hrs
# Procedure: (§1) Cell viability was determined at 24, 48, and 96 hrs by the trypan exclusion method. Whole cell lysates were prepared using standard procedures and fifty micrograms of lysate protein was separated on SDS-PAGE gels and analyzed by western blotting.
# (§2) Cell viability was determined at 24, 48, and 96 h by the trypan exclusion method. Whole cell lysates were prepared using standard procedures and 50 μg of lysate protein was separated on SDS-PAGE gels and analyzed by western blotting.
# CYP2C9 = CYP2C9 (Homo sapiens, UniProt P11712); test: in vitro; conditions: both
# CYP2C9, sequence (P11712 whole entry): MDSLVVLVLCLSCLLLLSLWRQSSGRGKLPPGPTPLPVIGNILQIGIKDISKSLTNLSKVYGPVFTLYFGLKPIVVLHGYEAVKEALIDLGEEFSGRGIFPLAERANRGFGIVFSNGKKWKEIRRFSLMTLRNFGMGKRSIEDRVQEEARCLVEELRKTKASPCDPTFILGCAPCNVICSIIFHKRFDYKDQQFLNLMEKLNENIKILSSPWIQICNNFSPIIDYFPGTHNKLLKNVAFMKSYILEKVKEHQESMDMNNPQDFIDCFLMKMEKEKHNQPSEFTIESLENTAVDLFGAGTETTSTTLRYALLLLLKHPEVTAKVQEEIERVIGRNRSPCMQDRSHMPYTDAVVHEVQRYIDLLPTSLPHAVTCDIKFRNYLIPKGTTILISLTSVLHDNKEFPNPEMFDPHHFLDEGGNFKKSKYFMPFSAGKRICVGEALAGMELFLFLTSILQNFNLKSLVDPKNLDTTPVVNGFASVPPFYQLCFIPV
# [3] = test system: Akt kinase activity in SHP-77 cells; test: Akt kinase activity (immunoprecipitated Akt, GSK-3 phosphorylation), SHP-77; conditions: SHP-77, 250 nM, 2-24 hrs
# HL-60 = test: Flow cytometric analysis of cell death (Annexin V/PI), HL-60; type: cell-based, human; conditions: HL-60, 200 nM
# Procedure: (§3) All cell lines were grown and exposed to various concentrations of COTI-2 or vehicle only control and the percentage of dead or dying cells were determined 24 and 48 h post-exposure by Annexin V and propidium iodide.
# (§4) HL-60 (human promyelocytic leukemia) cells were grown as non-adherent cells in flasks in RPMI 1640 medium supplemented with 10% FBS. H226 (human non-small cell lung cancer) cells were grown in Eagle's MEM supplemented with 10% FBS. Both cell lines were obtained from the American Type Culture Collection (ATCC)(Rockville, Md.) and maintained at 37° C. in a humidified 5% CO2 atmosphere.
# (§5) Cells were plated in 25-cm^2 flasks and treated with COTI-2 (0-100 μM) added from a stock DMSO/DMEM solution such that DMSO concentrations never exceeded 0.5%. Control cells were treated with stock DMSO/DMEM. […] Resuspended cells (100 μl) were incubated in the dark with 10 μl propidium iodide (PI, 50 ng per ml; Sigma, St. Louis, Mo.) plus Annexin V-FITC (25 ng per ml, green fluorescence; BD Biosciences, Mississauga, Ontario). […] Samples were analyzed for combined Annexin V/PI staining (to assess dead plus apoptotic cells) using a Beckman Coulter EPCS XL-MCL flow cytometer (Beckman Coulter, Hileah, Fla.) and the data were analyzed with CellQuest software.
# H226 = test: Flow cytometric analysis of cell death (Annexin V/PI), H226; type: cell-based, human; conditions: H226, 15 μM, 48 h
# Procedure: as §3, §4, §5
# [4] = test system: A2780 human ovarian tumor xenograft; test: A2780 human ovarian tumor xenograft model; conditions: for Day 17 CS (Complete Tumor Shrinkage): N 10
# [5] = B-A Permeability (TC7, pH 7.4/7.4) + verapamil; type: in vitro ADME; conditions: human, Caco-2, pH 7.4, with verapamil (concentration not stated), 1.0E−05 M
# [6] = test system: normal human peripheral blood mononuclear cells (PBMCs); test: Flow cytometric analysis of cell death (Annexin V/PI), PBMCs; type: cell-based; conditions: PBMC, PBMCs from healthy male and female subjects
# Procedure: as §3
# Blood samples from 2 healthy human volunteers (person) were obtained in 5 ml Vacutainers® containing 100 USP sodium heparin (Becton Dickinson, Franklin Lake, N.J.) and rocked gently to mix, then kept at room temperature. Blood was diluted 1:1 with phosphate buffered saline (PBS) and layered over an equal volume of room temperature Histopaque-1083® (Sigma Diagnostics, St. Louis, Mo.) in a 15 ml conical bottom polyethylene (PET) centrifuge tube (Corning Corporation, Corning, N.Y.). This was centrifuged at 400×g for 30 minutes at 20° C. […]
# as §5, with “0.5%.” for “0.5%. Control cells were treated with stock DMSO/DMEM.”
# [7] = test system: DMS-114 and SHP-77 SCLC cell lines; test: Cell viability by trypan blue exclusion; type: cell-based, human; conditions: 250 nM, within four days
# Procedure: as §1, §2
# [8] = test system: A549, H460, DMS114 and SHP77 cells; test: Western blot of total mTOR, mTOR phospho-Ser2448/Ser2481 and Akt phospho-Thr308; type: cell-based, human; conditions: 4 h
compound,measurement,setting,value
S=C(N/N=C1/CCCc2cccnc21)N1CCN(c2ccccn2)CC1 [COTI-2],percent remaining at 60 min,[1]; 1.0 μM,31%
same,Mean Parent Remaining,"[1]; 1.0E−06 M, 60 min, mean",31%
same,total Akt protein,[2],decreased
same,"inhibition at 15 min, 10 µM","CYP2C9; human liver microsomes, pH 7.4, probe diclofenac (10 µM)",2%
same,"inhibition at 15 min, 10 µM","CYP2C9; liver microsomes, pH 7.4, probe diclofenac",< 50%
same,Akt kinase activity,[3],more gradual decrease
same,induction of death,HL-60; 24 h,greater than 30%
same,induction of death,HL-60; 48 h,greater than 70%
same,induction of apoptosis and death,H226,approximately 40%
same,Day 17 Mean tumor weight,[4]; COTI-2 12.5 mg/kg IV,"1,699.2 ± 241.4 mg"
same,Day 17 TGI,[4]; COTI-2 12.5 mg/kg IV,22.04%
same,Maximum weight loss (%) (Day #),"[4]; COTI-2 12.5 mg/kg IV, Day 11",10.35% (Day 11)
same,Day 17 CS (Complete Tumor Shrinkage),[4]; COTI-2 12.5 mg/kg IV,0
same,Day 17 Mean tumor weight,[4]; COTI-2 50.0 mg/kg IV,"1,622.8 ± 403.0 mg"
same,Day 17 TGI,[4]; COTI-2 50.0 mg/kg IV,25.76%
same,Maximum weight loss (%) (Day #),"[4]; COTI-2 50.0 mg/kg IV, Day 8",8.65% (Day 8)
same,Day 17 CS (Complete Tumor Shrinkage),[4]; COTI-2 50.0 mg/kg IV,0
same,recovery at 10 µM,"[5]; 1st determination, read-out: Percent Recovery 1st",49%
same,recovery at 10 µM,"[5]; 2nd determination, read-out: Percent Recovery 2nd",46%
same,recovery at 10 µM,"[5]; mean, read-out: Percent Recovery Mean",47%
same,IC50,[6],> 100 µM
same,original tumor cells killed,[7],up to 80%
same,PKB/Akt phospho-Thr308 levels,[8]; A549 cells,decreased
same,mTOR phospho-Ser2448 level,[8]; SHP77 cells,reduced
